Source: US8034800B2, “Antiviral macrocycle derivatives and metal complexes, incorporating bridged macrocycles” (University of Hull, priority 2004, dated 2011)

Legend:
[1] = tested on: HIV-1 (IIIB); assay: Anti-HIV activity in MT-4 cells, tetrazolium viability, HIV-1; assay type: cell-based; conditions: Human immunodeficiency virus 1, MT4, 120 h, 5 d, read-out: av IC50
Text: (§1) Anti-HIV activity and cytoxicity measurements in MT-4 cells were based on viability of cells that had been infected or not infected with HIV-1 (IIIB) and HIV-2 (ROD) ×4 strainsexposed to various concentrations of the test compound [following the procedure of S. Harada et al., Science, 1985, 229, 563]. The MT-4 cells were allowed to proliferate for 5 d after which time the number of viable cells was quantified by a tetrazolium-based colorimetric method [described by R. Pauwels et al., Journal of Virology Methods, 1988, 20, 309.]

[2] = molecular target: CXCR4 chemokine receptor (Homo sapiens, UniProt P61073); assay: Competition with CXCR4 binding antibodies, flow cytometry; conditions: competition with anti-human CXCR4 mAb (44708.111), serial dilutions of compound added simultaneously with antibody
Procedure: (§2) The antibodies used in this study were: unconjugated mouse anti-human CXCR4 mAbs clones 44708.111, 44716.111, PE-conjugated clone 44717.111 and 12G5 (R&D Systems Europe, Abingdon, UK). Cells were preincubated with 20 μM of the compound for 30 mins. Thereafter cells were incubated with each of the mAbs for a further 60 mins. In the case of the direct binding assay, serial dilutions of the compound were added simultaneously with the antibody (44708.111). Cells were then incubated with a secondary fluorescein isothiocyanate-conjugated anti-mouse antibody (IgG-FITC) (Serotec, UK) for 30 mins. Cell samples were analysed by a FACScan flow cytometer (BD Biosciences Europe. Erembodegem, Belgium). Data were acquired and analysed with CellQuest software (Becton Dickinson) on an Apple Macintosh computer. Relative percentage inhibitions were calculated from the mean fluorescent intensity of the whole cell population and relative inhibitory concentration (IC) values were obtained by non linear regression analyses using the Graphpad prism software.

[3] = tested on: MT-4 cells; assay: Cytotoxicity in MT-4 cells, tetrazolium viability; assay type: cell-based; conditions: 5 d, printed in HIV-2 line, read-out: av CC50
Text: as §1

[4] = Cytotoxicity in MT-4 cells, tetrazolium viability; assay type: cell-based; conditions: human, printed in HIV-1 line, read-out: av CC50
Text: as §1

[5] = tested on: HIV-2 (ROD); assay: Anti-HIV activity in MT-4 cells, tetrazolium viability, HIV-2; assay type: cell-based; conditions: Human immunodeficiency virus 2, MT4, 120 h, 5 d, read-out: av IC50
Text: as §1

[6] = molecular target: T1, CXCR4 receptor (Homo sapiens, UniProt P61073); assay: Binding of rhodamine-tagged macrocycles to jurkat cells, flow cytometry; conditions: FIG. 1 / FIG. 2
T1 construct: endogenous in cells; host or cells: Jurkat cells
Procedure: Two monocyclam compounds were tagged with rhodamine and specific binding to the CXCR4 receptor was analysed by incubating with jurkat cells. Cell samples were analysed by flow cytometry as described in example 8, below.
as §2

Chain of CXCR4 chemokine receptor (P61073 whole entry): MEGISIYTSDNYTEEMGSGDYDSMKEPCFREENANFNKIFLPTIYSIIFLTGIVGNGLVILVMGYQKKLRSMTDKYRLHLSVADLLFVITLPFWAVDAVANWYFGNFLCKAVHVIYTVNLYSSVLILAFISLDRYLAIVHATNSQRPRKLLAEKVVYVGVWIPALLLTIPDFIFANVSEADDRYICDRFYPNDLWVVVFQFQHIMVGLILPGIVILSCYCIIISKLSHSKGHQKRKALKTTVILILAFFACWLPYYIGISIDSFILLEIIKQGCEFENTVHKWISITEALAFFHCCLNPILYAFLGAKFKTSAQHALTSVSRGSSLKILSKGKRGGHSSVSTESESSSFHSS
T1 sequence (P61073 whole entry): as above

SMILES | IC50 [1] [µM] | IC50 [2] [µM] | IC90 [2] [µM] | CC50 [3] [µM] | CC50 at 5 d [4] [µM] | IC50 [5] [µM] | binding to the CXCR4 chemokine receptor (flow cytometry histogram) [6]
c1cc(CN2CCCN3CCN(CCCNCC2)CC3)ccc1CN1CCCN2CCN(CCCNCC1)CC2 [Compound 16] | 6.98 | 17 | > 17 | > 225 | > 225 | 23.2 | 
CCN(CC)c1ccc2c(-c3ccc(NC(=S)Nc4ccc(CN5CCCN6CCN(CCCNCC5)CC6)cc4)cc3C(=O)O)c3ccc(=[N+](CC)CC)cc-3oc2c1 [Rhodamine-Bridged Macrocycle Conjugate] |  |  |  |  |  |  | binding of the chelator to the CXCR4 chemokine receptor
